Values of other authors, collected in patent publication US20080207644A1, “Therapeutic materials and methods” (priority 2006, published 2008).

Legend:
cancers = conditions: for mouth sores as side effect: human studies; for results in human studies: single agents or combinations, treatment of a variety of cancers
[1] = oral doses of 10-100 mg/kg
[2] = 30 mg/kg oral
[3] = tested on: a variety of malignancies; conditions: intravenous 0.7 to 1.3 mg/m^2/dose biweekly

| SMILES | mouth sores as side effect (cancers) | results in human studies (cancers) | also measured |
| --- | --- | --- | --- |
| CO[C@H]1C[C@@H]2CC[C@@H](C)[C@@](O)(O2)C(=O)C(=O)N2CCCC[C@H]2C(=O)O[C@H]([C@H](C)C[C@@H]2CC[C@@H](OP(C)(C)=O)[C@H](OC)C2)CC(=O)[C@H](C)/C=C(\C)[C@@H](O)[C@@H](OC)C(=O)[C@H](C)C[C@H](C)/C=C/C=C/C=C/1C [AP23573] | dose limiting toxicity | positive results |  |
| Cc1ccc2nc(NCCN)c3ncc(C)n3c2c1 [BMS-345541] |  |  | efficacy in mouse studies [1]: effective |
| COc1cccc2nc(-c3cccs3)nc(NN3C(=O)CC(C)C3=O)c12 (stereo not drawn) [SPC-839] |  |  | oral efficacy in a rat model [2]: oral efficacy |
| CC(C)C[C@H](NC(=O)[C@H](Cc1ccccc1)NC(=O)c1cnccn1)B(O)O [Velcade] |  |  | activity against malignancies [3]: activities against a variety of malignancies |
| CO[C@H]1C[C@@H]2CC[C@@H](C)[C@@](O)(O2)C(=O)C(=O)N2CCCC[C@H]2C(=O)O[C@H]([C@H](C)C[C@@H]2CC[C@@H](OCCO)[C@H](OC)C2)CC(=O)[C@H](C)/C=C(\C)[C@@H](O)[C@@H](OC)C(=O)[C@H](C)C[C@H](C)/C=C/C=C/C=C/1C [everolimus] | dose limiting toxicity | positive results |  |
| CO[C@H]1C[C@@H]2CC[C@@H](C)[C@@](O)(O2)C(=O)C(=O)N2CCCC[C@H]2C(=O)O[C@H]([C@H](C)C[C@@H]2CC[C@@H](OC(=O)C(C)(CO)CO)[C@H](OC)C2)CC(=O)[C@H](C)/C=C(\C)[C@@H](O)[C@@H](OC)C(=O)[C@H](C)C[C@H](C)/C=C/C=C/C=C/1C [temsirolimus] | dose limiting toxicity | positive results |  |
